Laboratory results reported in the supplement of paper PMC10307832.

Tests used:
Assay in all cases: relative viability (nuclei count vs DMSO), 5 days (fraction); higher = more cells survive
[1] = system: NCI-H1993
How it was run: (§1)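 Cells from lung cancer lines were seeded into 1536-well plates and, one day later, dosed by pin tool. Treatments were either a single drug or a fixed dose of an anchor drug with five library-drug doses (not always all listed) in √10 steps. After 5 days, nuclei were stained in a one-step fixation (final 0.05% Triton X-100, 1% formaldehyde, 1 ug/ml Hoechst) and counted on 4× images, and relative viability is the treated-to-vehicle nuclei ratio, as the median of duplicate plates.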

[2] = system: NCI-H1734
How it was run: as §1

[3] = system: HCC-827
How it was run: as §1

[4] = system: BEN
How it was run: as §1

[5] = system: HCC-366
How it was run: as §1

[6] = system: NCI-H2009
How it was run: as §1

[7] = system: SK-MES-1
How it was run: as §1

[8] = system: NCI-H2405
How it was run: as §1

[9] = system: LOU-NH91
How it was run: as §1

[10] = system: HARA
How it was run: as §1

[11] = system: NCI-H2087
How it was run: as §1

[12] = system: NCI-H1355
How it was run: as §1

[13] = system: NCI-H2170
How it was run: as §1

[14] = system: SK-LU-1
How it was run: as §1

[15] = system: NCI-H661
How it was run: as §1

[16] = system: NCI-H1395
How it was run: as §1

[17] = system: NCI-H2342
How it was run: as §1

[18] = system: NCI-H647
How it was run: as §1

[19] = system: NCI-H1792
How it was run: as §1

[20] = system: EKVX
How it was run: as §1

[21] = system: NCI-H1437
How it was run: as §1

[22] = system: NCI-H522
How it was run: as §1

Cc1sc2c(c1C)C(c1ccc(Cl)cc1)=N[C@@H](CC(=O)OC(C)(C)C)c1nnc(C)n1-2 [JQ1] + CC(=O)c1c(C)c2cnc(Nc3ccc(N4CCNCC4)cn3)nc2n(C2CCCC2)c1=O [Palbociclib] (partner 0.5 µM)
relative viability ([1]; first compound 0.04 µM): 0.772
relative viability ([1]; first compound 0.1265 µM): 0.734
relative viability ([1]; first compound 0.4 µM): 0.613
relative viability ([1]; first compound 1.265 µM): 0.613
relative viability ([1]; first compound 4 µM): 0.714
relative viability ([2]; first compound 0.04 µM): 0.365
relative viability ([2]; first compound 0.1265 µM): 0.334
relative viability ([2]; first compound 0.4 µM): 0.313
relative viability ([2]; first compound 1.265 µM): 0.279
relative viability ([2]; first compound 4 µM): 0.303
relative viability ([3]; first compound 0.04 µM): 0.528
relative viability ([3]; first compound 0.1265 µM): 0.388
relative viability ([3]; first compound 1.265 µM): 0.279
relative viability ([3]; first compound 4 µM): 0.252
relative viability ([4]; first compound 0.04 µM): 0.435
relative viability ([4]; first compound 0.1265 µM): 0.443
relative viability ([4]; first compound 0.4 µM): 0.476
relative viability ([4]; first compound 1.265 µM): 0.376
relative viability ([4]; first compound 4 µM): 0.325
relative viability ([5]; first compound 0.04 µM): 0.415
relative viability ([5]; first compound 0.4 µM): 0.202
relative viability ([5]; first compound 1.265 µM): 0.137
relative viability ([5]; first compound 4 µM): 0.0766
relative viability ([6]; first compound 0.04 µM): 0.181
relative viability ([6]; first compound 0.1265 µM): 0.137
relative viability ([6]; first compound 0.4 µM): 0.199
relative viability ([6]; first compound 1.265 µM): 0.158
relative viability ([6]; first compound 4 µM): 0.156
relative viability ([7]; first compound 0.04 µM): 0.295
relative viability ([7]; first compound 0.1265 µM): 0.264
relative viability ([7]; first compound 0.4 µM): 0.234
relative viability ([7]; first compound 1.265 µM): 0.213
relative viability ([7]; first compound 4 µM): 0.23
relative viability ([8]; first compound 0.04 µM): 0.571
relative viability ([8]; first compound 0.4 µM): 0.522
relative viability ([8]; first compound 1.265 µM): 0.471
relative viability ([8]; first compound 4 µM): 0.311
relative viability ([9]; first compound 0.04 µM): 0.493
relative viability ([9]; first compound 0.1265 µM): 0.474
relative viability ([9]; first compound 0.4 µM): 0.491
relative viability ([9]; first compound 1.265 µM): 0.394
relative viability ([9]; first compound 4 µM): 0.446
relative viability ([10]; first compound 0.04 µM): 0.224
relative viability ([10]; first compound 0.1265 µM): 0.193
relative viability ([10]; first compound 0.4 µM): 0.228
relative viability ([10]; first compound 1.265 µM): 0.229
relative viability ([10]; first compound 4 µM): 0.189
relative viability ([11]; first compound 0.04 µM): 0.234
relative viability ([11]; first compound 0.1265 µM): 0.214
relative viability ([11]; first compound 0.4 µM): 0.153
relative viability ([11]; first compound 1.265 µM): 0.157
relative viability ([11]; first compound 4 µM): 0.163
relative viability ([12]; first compound 0.04 µM): 0.375
relative viability ([12]; first compound 0.1265 µM): 0.372
relative viability ([12]; first compound 0.4 µM): 0.323
relative viability ([12]; first compound 1.265 µM): 0.276
relative viability ([12]; first compound 4 µM): 0.233
relative viability ([13]; first compound 0.04 µM): 0.342
relative viability ([13]; first compound 0.1265 µM): 0.353
relative viability ([13]; first compound 0.4 µM): 0.267
relative viability ([13]; first compound 1.265 µM): 0.178
relative viability ([13]; first compound 4 µM): 0.185
relative viability ([14]; first compound 0.04 µM): 0.405
relative viability ([14]; first compound 0.1265 µM): 0.359
relative viability ([14]; first compound 0.4 µM): 0.35
relative viability ([14]; first compound 1.265 µM): 0.282
relative viability ([14]; first compound 4 µM): 0.239
relative viability ([15]; first compound 0.04 µM): 0.406
relative viability ([15]; first compound 0.1265 µM): 0.369
relative viability ([15]; first compound 0.4 µM): 0.424
relative viability ([15]; first compound 1.265 µM): 0.406
relative viability ([15]; first compound 4 µM): 0.397
relative viability ([16]; first compound 0.04 µM): 0.591
relative viability ([16]; first compound 0.1265 µM): 0.556
relative viability ([16]; first compound 0.4 µM): 0.602
relative viability ([16]; first compound 1.265 µM): 0.443
relative viability ([16]; first compound 4 µM): 0.395
relative viability ([17]; first compound 0.04 µM): 0.526
relative viability ([17]; first compound 0.1265 µM): 0.501
relative viability ([17]; first compound 0.4 µM): 0.535
relative viability ([17]; first compound 1.265 µM): 0.574
relative viability ([17]; first compound 4 µM): 0.538
relative viability ([18]; first compound 0.04 µM): 0.372
relative viability ([18]; first compound 0.1265 µM): 0.231
relative viability ([18]; first compound 0.4 µM): 0.13
relative viability ([18]; first compound 1.265 µM): 0.113
relative viability ([18]; first compound 4 µM): 0.0792
relative viability ([19]; first compound 0.04 µM): 0.6
relative viability ([19]; first compound 0.4 µM): 0.538
relative viability ([19]; first compound 1.265 µM): 0.446
relative viability ([19]; first compound 4 µM): 0.385
relative viability ([20]; first compound 0.04 µM): 0.429
relative viability ([20]; first compound 0.1265 µM): 0.34
relative viability ([20]; first compound 0.4 µM): 0.372
relative viability ([20]; first compound 1.265 µM): 0.368
relative viability ([20]; first compound 4 µM): 0.314
relative viability ([21]; first compound 0.04 µM): 0.266
relative viability ([21]; first compound 0.1265 µM): 0.251
relative viability ([21]; first compound 0.4 µM): 0.218
relative viability ([21]; first compound 1.265 µM): 0.296
relative viability ([21]; first compound 4 µM): 0.217
relative viability ([22]; first compound 0.04 µM): 1.04
relative viability ([22]; first compound 0.1265 µM): 0.881
relative viability ([22]; first compound 0.4 µM): 0.697
relative viability ([22]; first compound 1.265 µM): 0.478
relative viability ([22]; first compound 4 µM): 0.39
